Key:
Assay in all cases: Histone demethylase assay, purified enzyme panel
Type in all cases: biochemical
Conditions in all cases: 58B1, 10 μM
JMJD2C (KDM4C) = molecular target: T1, JMJD2C (KDM4C) (Homo sapiens, UniProt Q9H3R0)
T1 sequence (Q9H3R0 1-1056): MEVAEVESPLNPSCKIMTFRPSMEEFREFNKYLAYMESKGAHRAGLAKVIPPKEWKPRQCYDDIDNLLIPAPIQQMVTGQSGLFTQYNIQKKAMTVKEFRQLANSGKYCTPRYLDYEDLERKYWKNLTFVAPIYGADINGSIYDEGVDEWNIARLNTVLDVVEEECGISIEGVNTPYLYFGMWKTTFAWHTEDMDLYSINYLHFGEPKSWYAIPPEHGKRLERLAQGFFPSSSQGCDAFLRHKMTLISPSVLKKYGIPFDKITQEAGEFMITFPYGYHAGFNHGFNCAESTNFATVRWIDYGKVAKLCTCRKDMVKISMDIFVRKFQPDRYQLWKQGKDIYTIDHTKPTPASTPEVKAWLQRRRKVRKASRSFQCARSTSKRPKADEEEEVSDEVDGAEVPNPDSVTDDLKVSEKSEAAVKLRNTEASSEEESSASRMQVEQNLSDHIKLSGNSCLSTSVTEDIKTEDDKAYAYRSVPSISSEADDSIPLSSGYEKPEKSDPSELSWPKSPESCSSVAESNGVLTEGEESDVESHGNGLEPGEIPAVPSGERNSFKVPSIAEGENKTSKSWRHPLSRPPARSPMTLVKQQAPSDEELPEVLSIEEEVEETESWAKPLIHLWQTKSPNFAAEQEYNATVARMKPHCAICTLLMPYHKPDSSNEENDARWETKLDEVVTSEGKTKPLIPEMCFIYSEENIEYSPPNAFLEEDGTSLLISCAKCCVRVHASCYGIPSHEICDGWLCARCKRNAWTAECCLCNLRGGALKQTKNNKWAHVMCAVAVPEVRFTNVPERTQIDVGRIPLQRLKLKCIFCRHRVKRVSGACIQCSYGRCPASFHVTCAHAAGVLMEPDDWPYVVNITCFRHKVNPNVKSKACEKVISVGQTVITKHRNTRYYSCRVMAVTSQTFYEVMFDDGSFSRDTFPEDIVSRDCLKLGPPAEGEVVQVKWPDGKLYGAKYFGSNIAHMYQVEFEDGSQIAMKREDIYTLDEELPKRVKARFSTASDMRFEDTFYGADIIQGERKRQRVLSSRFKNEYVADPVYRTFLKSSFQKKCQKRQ
Excerpt: (§1) Histone Demethylase Assay
(§2) To further examine the effects of 58B1 on histone demethylase, we screened a panel of purified histone demethylases was screened.

JMJD2A (KDM4A) = molecular target: T2, JMJD2A (KDM4A) (Homo sapiens, UniProt O75164)
T2 sequence (O75164 1-1064): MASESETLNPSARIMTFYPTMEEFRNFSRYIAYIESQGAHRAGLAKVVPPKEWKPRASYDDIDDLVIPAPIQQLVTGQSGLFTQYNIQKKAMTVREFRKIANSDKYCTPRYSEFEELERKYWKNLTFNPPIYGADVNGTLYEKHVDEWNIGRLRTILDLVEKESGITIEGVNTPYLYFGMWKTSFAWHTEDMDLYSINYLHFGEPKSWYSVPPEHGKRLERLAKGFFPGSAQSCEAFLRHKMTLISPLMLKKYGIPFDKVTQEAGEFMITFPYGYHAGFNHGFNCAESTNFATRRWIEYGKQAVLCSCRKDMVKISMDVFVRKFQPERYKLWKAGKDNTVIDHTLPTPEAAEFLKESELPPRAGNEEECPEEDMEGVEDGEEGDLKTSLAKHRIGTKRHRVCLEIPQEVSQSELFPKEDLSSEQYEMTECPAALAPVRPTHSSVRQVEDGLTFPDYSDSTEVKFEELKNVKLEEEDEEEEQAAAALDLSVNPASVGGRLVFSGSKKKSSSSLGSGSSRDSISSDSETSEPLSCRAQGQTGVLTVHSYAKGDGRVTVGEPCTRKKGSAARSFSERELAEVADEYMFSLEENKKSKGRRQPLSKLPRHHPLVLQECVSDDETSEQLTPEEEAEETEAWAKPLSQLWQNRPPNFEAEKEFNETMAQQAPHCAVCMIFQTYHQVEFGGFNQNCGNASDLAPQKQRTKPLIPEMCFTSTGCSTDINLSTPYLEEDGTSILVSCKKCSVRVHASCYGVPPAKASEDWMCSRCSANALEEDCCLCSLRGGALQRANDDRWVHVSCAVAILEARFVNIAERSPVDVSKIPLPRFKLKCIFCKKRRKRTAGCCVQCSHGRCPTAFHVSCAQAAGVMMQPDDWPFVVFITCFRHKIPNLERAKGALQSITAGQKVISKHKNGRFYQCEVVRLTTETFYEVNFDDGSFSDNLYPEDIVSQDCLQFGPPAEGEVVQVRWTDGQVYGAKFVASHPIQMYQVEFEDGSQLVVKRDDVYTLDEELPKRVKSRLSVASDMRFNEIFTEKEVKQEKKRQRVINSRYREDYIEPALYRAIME
Excerpt: as §1, §2

LSD1 (KDM1A) = LSD1 (KDM1A) (Homo sapiens, UniProt O60341)
Excerpt: as §1, §2

In the case of `CCCC(=O)NC(c1ccc(N(CC)CC)cc1)c1cc(Cl)c2cccnc2c1O` (stereo not drawn) [58B1], the inhibition at 10 µM (JMJD2C (KDM4C)) is reported as 72%, the inhibition at 10 µM (JMJD2A (KDM4A)) is reported as 64% and the inhibition at 10 µM (LSD1 (KDM1A)) is reported as 32%.

— patent US12599597B2, “Substituted N-benzhydrylacetamide inhibitors of jumanji domain histone demethylases for the treatment of cancer” (University of Kentucky Research Foundation, priority 2020, dated 2026)
